Data reported in publication PMC3949517 (Acta Crystallographica Section D: Biological Crystallography, 2014).
“And” between values parts separate entries of the source, which are not always exact repeats. Equal values may be shown once. Bridge positions count the residues as written; N and C are the ends. Ends that are not written are not given here. Peptide text beside a SMILES is read from it. * marks the point of attachment. Biotin = O=C1N[C@H]2[C@H](CS[C@H]2CCCCC(=O)*)N1

Columns and labels:
A17κ reactibody = type: binding, human
A17λ reactibody = type: binding, human; conditions: for Kd: read-out: Kd (BiaCore affinity constant)
[1] = tested on: A17λ reactibody (FabA17λ); type: biochemical, human
[2] = tested on: A17κ reactibody (FabA17κ); type: biochemical, human
A17 reactibody = conditions: cited from earlier work
[3] = tested on: recombinant Fab reactibodies (FabA17κ, FabA17λ); type: binding, human
scFvA17 = type: binding, human
[4] = tested on: A17λ reactibody (FabA17λ); type: biochemical, human; remark: listed apart in the source
[5] = tested on: A17κ reactibody (FabA17κ); type: biochemical, human; remark: listed apart in the source
[6] = tested on: A17κ reactibody (FabA17κ); type: biochemical, human; remark: listed apart in the source
[7] = biological target: T1, pep50L, linear (reduced) synthetic peptide 50 (synthetic (phage library-derived), cysteine pairing not given here); experiment: SPR; Biacore T200, SA sensor chip; biotinylated synthetic peptides immobilised, antibodies injected at a range of concentrations, 10 µl/min, 298 K; association and dissociation 300 s each; 1:1 binding model, affinity-analysis option; conditions: both partners purified
T1 construct: also called pep50 linear form; source: synthetic peptide
T1 chain: GACRNPWGLTCGAAGAEK(Biotin)-NH2

[8] = biological target: T2, pep54L, linear (reduced) synthetic peptide 54 (synthetic (phage library-derived), cysteine pairing not given here); experiment: as above; conditions: both partners purified
T2 construct: also called pep54 linear form; source: synthetic peptide
T2 chain: GACPNPWGLLCGAAGAEK(Biotin)-NH2

CC(C)C[C@@H]1NC(=O)CNC(=O)[C@H](Cc2c[nH]c3ccccc23)NC(=O)[C@@H]2CCCN2C(=O)[C@H](CC(N)=O)NC(=O)[C@H](CCCNC(=N)N)NC(=O)[C@@H](NC(=O)[C@H](C)NC(=O)CN)CSSC[C@@H](C(=O)NCC(=O)N[C@@H](C)C(=O)N[C@@H](C)C(=O)NCC(=O)N[C@@H](C)C(=O)N[C@@H](CCC(=O)O)C(=O)N[C@@H](CCCCNC(=O)CCCC[C@@H]2SC[C@@H]3NC(=O)N[C@@H]32)C(N)=O)NC(=O)[C@H]([C@@H](C)O)NC1=O [50C] (H-GACRNPWGLTCGAAGAEK(Biotin)-NH2; disulfide 3-11)
affinity (in words) (A17κ reactibody): high affinity
binding activity of A17κ compared with A17λ (in words) (A17κ reactibody): A17κ was more active in binding either the linear or the cyclic form of pep50
Kd (A17κ reactibody; read-out: Kd (BiaCore affinity constant)): 0.9 µM
affinity (in words) (A17λ reactibody): high affinity

CC(C)C[C@H](NC(=O)CNC(=O)[C@H](Cc1c[nH]c2ccccc12)NC(=O)[C@@H]1CCCN1C(=O)[C@H](CC(N)=O)NC(=O)[C@H](CCCNC(=N)N)NC(=O)[C@H](CS)NC(=O)[C@H](C)NC(=O)CN)C(=O)N[C@H](C(=O)N[C@@H](CS)C(=O)NCC(=O)N[C@@H](C)C(=O)N[C@@H](C)C(=O)NCC(=O)N[C@@H](C)C(=O)N[C@@H](CCC(=O)O)C(=O)N[C@@H](CCCCNC(=O)CCCC[C@@H]1SC[C@@H]2NC(=O)N[C@@H]21)C(N)=O)[C@@H](C)O [50L] (H-GACRNPWGLTCGAAGAEK(Biotin)-NH2)
affinity (in words) (A17κ reactibody): high affinity
binding activity of A17κ compared with A17λ (in words) (A17κ reactibody): A17κ was more active in binding either the linear or the cyclic form of pep50
affinity (in words) (A17λ reactibody): high affinity
Kd (A17λ reactibody): 2.3 µM

CC(C)C[C@@H]1NC(=O)CNC(=O)[C@H](Cc2c[nH]c3ccccc23)NC(=O)[C@@H]2CCCN2C(=O)[C@H](CC(N)=O)NC(=O)[C@@H]2CCCN2C(=O)[C@@H](NC(=O)[C@H](C)NC(=O)CN)CSSC[C@@H](C(=O)NCC(=O)N[C@@H](C)C(=O)N[C@@H](C)C(=O)NCC(=O)N[C@@H](C)C(=O)N[C@@H](CCC(=O)O)C(=O)N[C@@H](CCCCNC(=O)CCCC[C@@H]2SC[C@@H]3NC(=O)N[C@@H]32)C(N)=O)NC(=O)[C@H](CC(C)C)NC1=O [54C] (H-GACPNPWGLLCGAAGAEK(Biotin)-NH2; disulfide 3-11)
binding activity of A17λ compared with A17κ (in words) (A17λ reactibody): A17λ was more active than A17κ

CC(C)C[C@H](NC(=O)CNC(=O)[C@H](Cc1c[nH]c2ccccc12)NC(=O)[C@@H]1CCCN1C(=O)[C@H](CC(N)=O)NC(=O)[C@@H]1CCCN1C(=O)[C@H](CS)NC(=O)[C@H](C)NC(=O)CN)C(=O)N[C@@H](CC(C)C)C(=O)N[C@@H](CS)C(=O)NCC(=O)N[C@@H](C)C(=O)N[C@@H](C)C(=O)NCC(=O)N[C@@H](C)C(=O)N[C@@H](CCC(=O)O)C(=O)N[C@@H](CCCCNC(=O)CCCC[C@@H]1SC[C@@H]2NC(=O)N[C@@H]21)C(N)=O [54L] (H-GACPNPWGLLCGAAGAEK(Biotin)-NH2)
Kd (A17λ reactibody): 18 µM

CCOP(=O)(OCC)Oc1ccc([N+](=O)[O-])cc1 [paraoxon, O,O-Diethyl O-(4-nitrophenyl)phosphate]
k2/KD, paraoxon [1]: 1.63 ± 0.65 M–1 min–1
k2/Kd, paraoxon ([1]; pH 7.4): 1.6 0.6 M ^1min^1
k2/KD, paraoxon [2]: 1.15 ± 0.52 M–1 min–1
k2/Kd, paraoxon ([2]; pH 7.4): 1.2 0.5 M ^1min^1
reaction with A17 reactibody (in words) (A17 reactibody): hydrolyzing

CPNPWGLLC (disulfide 1-9 (inferred)) [pep54]
binding by recombinant Fab reactibodies (in words) [3]: capable of binding
effect of phosphonylation of the Fabs on level of binding (in words) [3]: reduced the level of binding
binding to scFvA17 (in words) (scFvA17): specifically bind
effect of phosphonylation of scFv on ELISA signals (in words) (scFvA17): significantly enhanced the ELISA signals

CRNPWGLTC (disulfide 1-9 (inferred)) [pep50]
binding by recombinant Fab reactibodies (in words) [3]: capable of binding
effect of phosphonylation of the Fabs on level of binding (in words) [3]: reduced the level of binding
binding to scFvA17 (in words) (scFvA17): specifically bind
effect of phosphonylation of scFv on ELISA signals (in words) (scFvA17): significantly enhanced the ELISA signals

p-nitrophenyl 8-methyl-8-azabicyclo[3.2.1]octylphenylphosphonate [phosphonate X]
Ea (activation-energy parameter), phosphonate X [4]: 11.4 0.5 kcalmol^1
Kd ([4]; pH 7.4): 110 µM and 145 µM and 170 µM and 130 µM and 180 µM
k2, phosphonate X ([4]; pH 7.4): 0.28 0.02 min^1
reaction with A17 reactibody (in words) (A17 reactibody): irreversibly binding
Ea (activation-energy parameter), phosphonate X [5]: 12.5 1.3 kcalmol^1
Kd ([5]; pH 7.4): 120 µM and 150 µM and 80 µM and 130 µM
k2, phosphonate X ([5]; pH 7.4): 0.24 0.03 min^1
rate of induced-fit stage, A17κ vs A17λ (in words) [6]: induced-fit stage is more rapid in the κ variant

B1: FabA17λ (Fab of the A17 reactibody with the λ light-chain constant domain) (Fab, V domains shown)
VH: QVQLQESGPGLVKPSETLSLTCAVSGYSISSGYYWGWIRQPPGKGLEWIGSIYHSGSTYYNPSLKSRVTISVDTSKNQFSLKLSSVTAADTAVYYCAGLTQSSHNDANWGQGTLVTVSS
VL: QSVLTQPPSVSAAPGQKVTISCSGSSSNIGNNYVSWYQQLPGTAPKLLIYDNNKRPSGIPDRFSGSKSGTSATLGITGLQTGDEADYYCGTWDSSLNPVFGGGTKLTVL
notes: as the heavy chain of m1 (HCH: A17 VH, human CH1, hinge region); natural-type λ light chain: A17 VL (identical to the VL of m1) with the J2 segment and the constant region of human λ2 light chain; also called FabA17 λ variant; source: Pichia pastoris GS115, culture medium, purified (Talon, Mono Q, Superdex 75)
Kd [7]: 2.3 µM
Kd [8]: 18 µM
